Reference: PubChem BioAssay AID1963846 (Molecular Pharmacology Branch, DTP, NCI, 2024)

Test system: 454973-116-R2-J3-PDC complex spheroid viability
Assay: Anticancer human tumor 454973-116-R2-J3-PDC patient-derived pancreatic carcinoma cell line growth inhibition [POLQ]
Conditions: for IC50: curve of first compound; for viability, T/C: stronger effect = lower value; active = viability on the fitted dose curve at most 10% of control; inactive = the rest
In short: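 Three-cell-type spheroids modelling solid tumor plus stroma served as the readout system; POL inhibitors were tested individually and in combination, concentration ranges set by clinical Cmax where known.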

[1] = second compound 0.0316 µM, first compound 0.0316 µM
[2] = second compound 0.0316 µM, first compound 0.1 µM
[3] = second compound 0.0316 µM, first compound 0.316 µM
[4] = second compound 0.0316 µM, first compound 1 µM
[5] = second compound 0.0316 µM, first compound 3.16 µM
[6] = second compound 0.0316 µM, first compound 10 µM
[7] = second compound 0.1 µM, first compound 0.0316 µM
[8] = second compound 0.1 µM, first compound 0.1 µM
[9] = second compound 0.1 µM, first compound 0.316 µM
[10] = second compound 0.1 µM, first compound 1 µM
[11] = second compound 0.1 µM, first compound 3.16 µM
[12] = second compound 0.1 µM, first compound 10 µM
[13] = second compound 0.316 µM, first compound 0.0316 µM
[14] = second compound 0.316 µM, first compound 0.1 µM
[15] = second compound 0.316 µM, first compound 0.316 µM
[16] = second compound 0.316 µM, first compound 1 µM
[17] = second compound 0.316 µM, first compound 3.16 µM
[18] = second compound 0.316 µM, first compound 10 µM
[19] = second compound 1 µM, first compound 0.0316 µM
[20] = second compound 1 µM, first compound 0.1 µM
[21] = second compound 1 µM, first compound 0.316 µM
[22] = second compound 1 µM, first compound 1 µM
[23] = second compound 1 µM, first compound 3.16 µM
[24] = second compound 1 µM, first compound 10 µM
[25] = second compound 3.16 µM, first compound 0.0316 µM
[26] = second compound 3.16 µM, first compound 0.1 µM
[27] = second compound 3.16 µM, first compound 0.316 µM
[28] = second compound 3.16 µM, first compound 1 µM
[29] = second compound 3.16 µM, first compound 3.16 µM
[30] = second compound 3.16 µM, first compound 10 µM
[31] = second compound 10 µM, first compound 0.0316 µM
[32] = second compound 10 µM, first compound 0.1 µM
[33] = second compound 10 µM, first compound 0.316 µM
[34] = second compound 10 µM, first compound 1 µM
[35] = second compound 10 µM, first compound 3.16 µM
[36] = second compound 10 µM, first compound 10 µM
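Note: spheroids exposed to drugs for seven days before measurement.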
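Throughout, for viability, T/C: percent viability relative to DMSO vehicle control wells taken as 100%.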

CCc1cc2c(N3CCc4c(cc(Cn5ccnc5)cc4-c4cn(C)nc4C(F)(F)F)C3=O)cc(C)nc2c(OC)n1 + Nc1ccc(C#CCN(C(=O)Cc2ncc(C(F)(F)F)cc2C(F)(F)F)c2ccc(F)cc2)nn1
> 10 µM: IC50 (second compound 0.0316 µM) | IC50 (second compound 0.1 µM) | IC50 (second compound 0.316 µM) | IC50 (second compound 1 µM) | IC50 (second compound 3.16 µM) | IC50 (second compound 10 µM)
inactive: viability, T/C [1] 99.6% | viability, T/C [2] 87.8% | viability, T/C [3] 73.5% | viability, T/C [4] 72.2% | viability, T/C [5] 64.4% | viability, T/C [6] 56.5% | viability, T/C [7] 99.1% | viability, T/C [8] 88.4% | viability, T/C [9] 82.6% | viability, T/C [10] 74.2% | viability, T/C [11] 63.2% | viability, T/C [12] 56.9% | viability, T/C [13] 96.2% | viability, T/C [14] 91.1% | viability, T/C [15] 78.9% | viability, T/C [16] 79.2% | viability, T/C [17] 70.8% | viability, T/C [18] 55% | viability, T/C [19] 97.7% | viability, T/C [20] 87.3% | viability, T/C [21] 81.6% | viability, T/C [22] 79% | viability, T/C [23] 63% | viability, T/C [24] 50.9% | viability, T/C [25] 101% | viability, T/C [26] 95.3% | viability, T/C [27] 90.8% | viability, T/C [28] 84.5% | viability, T/C [29] 68.3% | viability, T/C [30] 59.6% | viability, T/C [31] 100% | viability, T/C [32] 114% | viability, T/C [33] 86.3% | viability, T/C [34] 78.6% | viability, T/C [35] 80.1% | viability, T/C [36] 56.8%

COc1ccc([C@@H](O)c2cc(-c3ncnc4cc(N5CCOCC5)ccc34)c(F)cc2Cl)nn1 + Cc1cccc(N(C)C(=O)C2C(O)CCN2c2nc(C)cc(C(F)(F)F)c2C#N)c1
> 10 µM: IC50 (second compound 0.0316 µM) | IC50 (second compound 0.1 µM) | IC50 (second compound 0.316 µM) | IC50 (second compound 1 µM) | IC50 (second compound 3.16 µM) | IC50 (second compound 10 µM)
inactive: viability, T/C [1] 105% | viability, T/C [2] 114% | viability, T/C [3] 101% | viability, T/C [4] 92.5% | viability, T/C [5] 70.2% | viability, T/C [6] 56.4% | viability, T/C [7] 104% | viability, T/C [8] 99% | viability, T/C [9] 102% | viability, T/C [10] 95.5% | viability, T/C [11] 71.1% | viability, T/C [12] 58% | viability, T/C [13] 107% | viability, T/C [14] 99.8% | viability, T/C [15] 103% | viability, T/C [16] 91.8% | viability, T/C [17] 76.2% | viability, T/C [18] 55% | viability, T/C [19] 109% | viability, T/C [20] 105% | viability, T/C [21] 107% | viability, T/C [22] 87.1% | viability, T/C [23] 71.5% | viability, T/C [24] 53.3% | viability, T/C [25] 112% | viability, T/C [26] 101% | viability, T/C [27] 108% | viability, T/C [28] 87.7% | viability, T/C [29] 74.7% | viability, T/C [30] 58.4% | viability, T/C [31] 112% | viability, T/C [32] 99.9% | viability, T/C [33] 99.3% | viability, T/C [34] 84.5% | viability, T/C [35] 64.7% | viability, T/C [36] 59.8%

COc1cccc2c1C(=O)c1c(O)c3c(c(O)c1C2=O)CC(O)(C(=O)CO)CC3OC1CC(N)C(O)C(C)O1 (stereo not drawn) + COC1C(OC(N)=O)C(O)C(Oc2ccc3c(O)c(NC(=O)c4ccc(O)c(CC=C(C)C)c4)c(=O)oc3c2C)OC1(C)C
0.0573 µM: IC50 (second compound 0.1 µM)
0.0562 µM: IC50 (second compound 0.0316 µM)
0.0618 µM: IC50 (second compound 10 µM)
0.0636 µM: IC50 (second compound 1 µM)
0.0648 µM: IC50 (second compound 0.316 µM)
active: viability, T/C [4] 8.86% | viability, T/C [5] 0.64% | viability, T/C [6] 0.19% | viability, T/C [10] 8.87% | viability, T/C [11] 0.52% | viability, T/C [12] 0.98% | viability, T/C [16] 8.79% | viability, T/C [17] 0.27% | viability, T/C [18] 0.29% | viability, T/C [22] 11.8% | viability, T/C [23] 3.28% | viability, T/C [24] 2.08% | viability, T/C [28] 9.68% | viability, T/C [29] 0.46% | viability, T/C [30] 0.39% | viability, T/C [34] 10% | viability, T/C [35] 1.62% | viability, T/C [36] 0.41%
inactive: viability, T/C [1] 71% | viability, T/C [2] 23.6% | viability, T/C [3] 21.3% | viability, T/C [7] 69.5% | viability, T/C [8] 27.6% | viability, T/C [9] 22.3% | viability, T/C [13] 74.3% | viability, T/C [14] 29.4% | viability, T/C [15] 25.5% | viability, T/C [19] 78.3% | viability, T/C [20] 26% | viability, T/C [21] 23.6% | viability, T/C [25] 76.4% | viability, T/C [26] 30.7% | viability, T/C [27] 22.9% | viability, T/C [31] 76% | viability, T/C [32] 24.7% | viability, T/C [33] 24.8%
0.0664 µM: IC50 (second compound 3.16 µM)

O=c1[nH]cc(F)c(=O)[nH]1 + COC1C(OC(N)=O)C(O)C(Oc2ccc3c(O)c(NC(=O)c4ccc(O)c(CC=C(C)C)c4)c(=O)oc3c2C)OC1(C)C
inactive: viability, T/C [1] 104% | viability, T/C [2] 104% | viability, T/C [3] 110% | viability, T/C [4] 100% | viability, T/C [5] 55.6% | viability, T/C [6] 31.2% | viability, T/C [7] 105% | viability, T/C [8] 108% | viability, T/C [9] 106% | viability, T/C [10] 98% | viability, T/C [11] 60.6% | viability, T/C [12] 31.4% | viability, T/C [13] 112% | viability, T/C [14] 108% | viability, T/C [15] 108% | viability, T/C [16] 96.9% | viability, T/C [17] 55.2% | viability, T/C [18] 34.9% | viability, T/C [19] 112% | viability, T/C [20] 111% | viability, T/C [21] 110% | viability, T/C [22] 96.4% | viability, T/C [23] 53.9% | viability, T/C [24] 35.1% | viability, T/C [25] 112% | viability, T/C [26] 118% | viability, T/C [27] 113% | viability, T/C [28] 97.6% | viability, T/C [29] 63.4% | viability, T/C [30] 36.9% | viability, T/C [31] 111% | viability, T/C [32] 108% | viability, T/C [33] 109% | viability, T/C [34] 100% | viability, T/C [35] 50.6% | viability, T/C [36] 31.3%
5.63 µM: IC50 (second compound 3.16 µM)
4.01 µM: IC50 (second compound 1 µM)
4.27 µM: IC50 (second compound 0.316 µM)
4.11 µM: IC50 (second compound 0.0316 µM)
3.27 µM: IC50 (second compound 10 µM)
4.8 µM: IC50 (second compound 0.1 µM)
